Results taken from patent US20240279215A1 (Cytokinetics, Incorporated, priority 2022, published 2024).
pEC50: −log10 of the molar value. Where “and” joins values, the source holds several entries; their conditions need not be identical. Identical values can stand only once.

Tests used:
[1] = test system: P-gp (MDR1); test: MDR1-MDCK bidirectional permeability assay; conditions: dog, MDCK-MDR1, pH 7.4, Efflux ratio
Description: (§1) A bidirectional permeability assay using Madin Darby canine kidney cells expressing multi-drug resistance gene 1 (MDCK-MDR1) is routinely used to evaluate discovery compounds' BBB permeability and drug efflux toward the advancement of discovery compounds with brain penetration.
(§2) MDCK-MDR1 Cells (NIH cell line) were obtained from the National Institutes of Health. […] Cell culture medium was replaced every other day, beginning no later than 24 hours after the initial plating. […] The dosing solution concentration was 1 μM for the test article in the assay buffer. Cell monolayers were dosed on the apical side (A-to-B) or basolateral side (B-to-A) and incubated at 37° C. under an atmosphere of 5% CO2 in a humidified incubator. Samples were taken from the donor and receiver chambers at 120 minutes. Each determination was performed in duplicate. After the 120 min transport period, the flux of lucifer yellow was also measured for each monolayer to ensure no damage was inflicted to the cell monolayers during the transport period. All samples were assayed by LC-MS/MS (Waters XSelect HSS T3 C18, 2.5 m, 2.1×50 mm) using electrospray ionization with 0.1% formic acid in water (mobile phase A) and 0.1% formic acid in acetonitrile (mobile phase B) as mobile phases. The apparent permeability coefficient (Papp), in units of cm per second, was calculated for MDCK-MDR1 Cells (NIH cell line) drug transport assays using the following equation:
(§3) Where VA is the volume (in mL) in the acceptor well, Area is the surface area of the membrane (0.143 cm^2 for Transwell-96 Well Permeable Supports), and time is the total transport time in seconds.
(§4) The leakage of Lucifer Yellow (LY), in unit of percentage (%), can be calculated using the following equation:
(§5) LY leakage of <1% is acceptable to indicate the well-qualified MDCK-MDR1(NIH) monolayer.

[2] = test system: MDCK-MDR1 cells (P-gp, MDR1); test: MDR1-MDCK bidirectional permeability assay; conditions: for PappAB: A to B
Description: as §1, §2, §3, §4, §5

[3] = molecular target: human NAMPT (Homo sapiens (Human), UniProt P43490); test: NMN fluorescence biochemical assay (human recombinant NAMPT enzyme assay)
Chain of human NAMPT (P43490 whole entry): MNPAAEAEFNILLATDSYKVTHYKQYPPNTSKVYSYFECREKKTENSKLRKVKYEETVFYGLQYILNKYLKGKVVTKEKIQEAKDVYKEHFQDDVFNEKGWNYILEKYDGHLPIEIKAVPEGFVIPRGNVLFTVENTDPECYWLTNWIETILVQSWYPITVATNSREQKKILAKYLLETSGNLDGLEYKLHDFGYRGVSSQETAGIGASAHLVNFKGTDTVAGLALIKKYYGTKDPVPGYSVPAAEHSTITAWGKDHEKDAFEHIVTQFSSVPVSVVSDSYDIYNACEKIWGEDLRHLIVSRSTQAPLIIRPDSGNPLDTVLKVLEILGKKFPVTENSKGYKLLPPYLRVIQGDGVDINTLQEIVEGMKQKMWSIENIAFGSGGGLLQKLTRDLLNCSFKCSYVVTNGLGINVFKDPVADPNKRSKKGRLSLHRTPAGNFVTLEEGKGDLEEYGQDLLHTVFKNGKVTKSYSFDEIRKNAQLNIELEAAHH
Procedure, shortened: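 NMN formed was detected by fluorescence (Ex/Em 355/460 nm) after acetophenone, KOH and formic acid derivatization. The cell-free reaction ran 60 min at ambient temperature with 6 nM human NAMPT, 150 μM nicotinamide, 20 μM PRPP, 2.5 mM ATP, pH 7.2 HEPES, and compound dose responses.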

Row | Compound | efflux ratio at 120 min, 1 μM [1] | PappAB [2] | AC1.4 Human [3] [µM] | pEC50 [3] | Efflux ratio [2]
1 | O=C(NCc1ccc(Cl)cc1)Nc1ccc(CC2CCN(C3COC3)CC2)cc1 [Comparator 1, 1-(4-chlorobenzyl)-3-(4-((1-(oxetan-3-yl)piperidin-4-yl)methyl)phenyl)urea, reference compound] | 14.7 | 1.85 | – | – | –
2 | O=C(Nc1ccc(CN2CCC[C@@H]2c2cccnc2)cc1)OCc1ccc(CO)cc1 [Compound 5, [4-(hydroxymethyl)phenyl]methyl N-(4-{[(2R)-2-(pyridin-3-yl)pyrrolidin-1-yl]methyl}phenyl)carbamate] | 7.02 | 5.32 | 0.07 | 6.54 | –
3 | Cc1ccc(C(=O)NCc2ccc(NC(=O)OCc3ccc(Cl)cc3)cc2)cn1 [Compound 21, (4-chlorophenyl)methyl N-(4-{[(6-methylpyridin-3-yl)formamido]methyl}phenyl)carbamate] | 3.74 | 2.79 | 0.30 | 5.70 | –
4 | COC(=O)N1CCC(Cc2ccc(NC(=O)OCc3ccncc3)cc2)CC1 [Compound 23, methyl 4-(4-(((pyridin-4-ylmethoxy)carbonyl)amino)benzyl)piperidine-1-carboxylate] | 2 | 6.30 | 0.32 | 5.56 | –
5 | CC(=O)N1CCC(Cc2ccc(NC(=O)OCc3ccc(Cl)cc3)cc2)CC1 [Compound 40, 4-chlorobenzyl (4-((1-acetylpiperidin-4-yl)methyl)phenyl)carbamate] | 1.93 | 3.38 and 3.4 | 0.43 | 5.62 | 1.9
6 | O=C(Nc1ccc(CC2CCN(C3COC3)CC2)cc1)OCc1ccc(Cl)cc1 [Compound 43, 4-chlorobenzyl (4-((1-(oxetan-3-yl)piperidin-4-yl)methyl)phenyl)carbamate] | 0.92 | 5.39 and 5.4 | 0.45 | 5.34 | –
7 | O=C(Nc1ccc(COC2CCN(C3COC3)CC2)cc1)OCc1ccc(Cl)cc1 [Compound 232, 4-chlorobenzyl (4-(((1-(oxetan-3-yl)piperidin-4-yl)oxy)methyl)phenyl)carbamate] | 1.5 | 9.8 | 2.17 | 4.68 | –
8 | COC(=O)N1CCC(Cc2ccc(NC(=O)OCc3cnco3)cc2)C2CC21 (stereo not shown) [Compound 456, methyl 5-(4-(((oxazol-5-ylmethoxy)carbonyl)amino)benzyl)-2-azabicyclo[4.1.0]heptane-2-carboxylate] | – | – | 0.23 | 4.75 | –
9 | CC(=O)N1CCC(Cc2ccc(NC(=O)OCc3cnco3)cc2)C2CC21 (stereo not shown) [Compound 457, oxazol-5-ylmethyl (4-((2-acetyl-2-azabicyclo[4.1.0]heptan-5-yl)methyl)phenyl)carbamate] | – | – | 0.250 | 4.67 | –
10 | O=C(Nc1ccc(CC2CCN(C(=O)N3CCOCC3)CC2)cc1)OCc1cnco1 [Compound 458, oxazol-5-ylmethyl (4-((1-(morpholine-4-carbonyl)piperidin-4-yl)methyl)phenyl)carbamate] | – | – | 0.13 | 4.82 | –
11 | O=C(Nc1ccc(CC2CCN(S(=O)(=O)C3CCC3)CC2)cc1)OCc1cnco1 [Compound 459, oxazol-5-ylmethyl (4-((1-(cyclobutylsulfonyl)piperidin-4-yl)methyl)phenyl)carbamate] | – | – | 0.18 | 5.15 | –
12 | O=C(Nc1ccc(CC2CCN(S(=O)(=O)C3CC3)CC2)cc1)OCc1cnco1 [Compound 460, oxazol-5-ylmethyl (4-((1-(cyclopropylsulfonyl)piperidin-4-yl)methyl)phenyl)carbamate] | – | – | 0.24 | 4.91 | –
13 | O=C(Nc1ccc(CC2CCN(S(=O)(=O)N3CCC3)CC2)cc1)OCc1cnco1 [Compound 465, oxazol-5-ylmethyl (4-((1-(azetidin-1-ylsulfonyl)piperidin-4-yl)methyl)phenyl)carbamate] | – | – | 0.14 | 5.14 | –
14 | O=C(Nc1ccc(CC2CCN(C3COC3)CC2)cc1)OCc1cncs1 [Compound 466, thiazol-5-ylmethyl (4-((1-(oxetan-3-yl)piperidin-4-yl)methyl)phenyl)carbamate] | – | – | 1.19 | 4.84 | –
15 | O=C(Nc1ccc(CC2CCN(CC(F)(F)F)CC2)cc1)OCc1cncs1 [Compound 467, thiazol-5-ylmethyl (4-((1-(2,2,2-trifluoroethyl)piperidin-4-yl)methyl)phenyl)carbamate] | – | – | 1.07 | 4.84 | –
16 | O=C(Nc1ccc(CC2CCN(CC3CCO3)CC2)cc1)OCc1cnco1 (stereo not shown) [Compound 471, oxazol-5-ylmethyl (4-((1-(oxetan-2-ylmethyl)piperidin-4-yl)methyl)phenyl)carbamate] | – | – | 0.50 | 4.82 | –
17 | CC(=O)N1CC2(CC(Cc3ccc(NC(=O)OCc4cnco4)cc3F)C2)C1 [Compound 472, oxazol-5-ylmethyl (4-((2-acetyl-2-azaspiro[3.3]heptan-6-yl)methyl)-3-fluorophenyl)carbamate] | – | – | 0.11 | 5.25 | –
18 | tert-butyl 4-(4-(((oxazol-5-ylmethoxy)carbonyl)amino)phenethyl)piperidine-1-carboxylate [Compound 121] | – | – | 0.97 | 4.84 | –

Results, then the compound that gave them:

Row | efflux ratio at 120 min, 1 μM [1] | PappAB [2] | AC1.4 Human [3] [µM] | pEC50 [3] | Efflux ratio [2] | Compound
19 | 5.41 | 9.77 | 0.14 | 4.49 | – | CC(=O)N1CCC(c2ccc(NC(=O)OCc3cnco3)cc2)CC1 [Compound 8, 1,3-oxazol-5-ylmethyl N-[4-(1-acetylpiperidin-4-yl)phenyl]carbamate]
20 | 3.32 | 5.57 | 0.38 | 4.68 | – | CN(C)C(=O)N1CCC(CCc2ccc(NC(=O)OCc3cnco3)cc2)CC1 [Compound 32, oxazol-5-ylmethyl (4-(2-(1-(dimethylcarbamoyl)piperidin-4-yl)ethyl)phenyl)carbamate]
21 | 1.11 | 13.26 | 0.56 | 4.31 | – | O=C(Nc1ccc(CC2CCN(CC(F)F)CC2)cc1)OCc1cnco1 [Compound 59, oxazol-5-ylmethyl (4-((1-(2,2-difluoroethyl)piperidin-4-yl)methyl)phenyl)carbamate]
22 | 1.04 | 9.10 | 0.61 | 4.64 | – | O=C(Nc1ccc(CC2CCN(CC(F)(F)F)CC2)cc1)OCc1cnco1 [Compound 70, oxazol-5-ylmethyl (4-((1-(2,2,2-trifluoroethyl)piperidin-4-yl)methyl)phenyl)carbamate]
23 | 2.26 | 13.54 | 1.06 | 4.39 | – | O=C(Nc1ccc(CCC2CCN(C3COC3)CC2)cc1)OCc1cnco1 [Compound 132, oxazol-5-ylmethyl (4-(2-(1-(oxetan-3-yl)piperidin-4-yl)ethyl)phenyl)carbamate]
24 | – | – | 0.13 | 5.03 | – | O=C(Nc1ccc(CC2CCN(C(=O)N3CCCCC3)CC2)cc1)OCc1cnco1 [Compound 461, oxazol-5-ylmethyl (4-((1-(piperidine-1-carbonyl)piperidin-4-yl)methyl)phenyl)carbamate]
25 | – | – | 0.18 | 4.88 | – | O=C(Nc1ccc(CC2CCN(C(=O)N3CCCC3)CC2)cc1)OCc1cnco1 [Compound 462, oxazol-5-ylmethyl (4-((1-(pyrrolidine-1-carbonyl)piperidin-4-yl)methyl)phenyl)carbamate]
26 | – | – | 0.42 | 4.36 | – | O=C(Nc1ccc(CC2CCN(C(=O)N3CC(F)(F)C3)CC2)cc1)OCc1cnco1 [Compound 463, oxazol-5-ylmethyl (4-((1-(3,3-difluoroazetidine-1-carbonyl)piperidin-4-yl)methyl)phenyl)carbamate]
27 | 2.19 | 9.11 | 0.14 | 5.51 | – | CC(C)S(=O)(=O)N1CCC(Cc2ccc(NC(=O)OCc3cnco3)cc2)CC1 [Compound 464, oxazol-5-ylmethyl (4-((1-(isopropylsulfonyl)piperidin-4-yl)methyl)phenyl)carbamate]
28 | – | – | 0.13 | 4.84 | – | O=C(Nc1ccc(CC2CCN(C(=O)N3CCC3)CC2)cc1)OCc1cnco1 [Compound 468, oxazol-5-ylmethyl (4-((1-(azetidine-1-carbonyl)piperidin-4-yl)methyl)phenyl)carbamate]
29 | – | – | 0.24 | 4.58 | – | O=C(Nc1ccc(CC2CCN(C(=O)C3CCC3)CC2)cc1)OCc1cnco1 [Compound 469, oxazol-5-ylmethyl (4-((1-(cyclobutanecarbonyl)piperidin-4-yl)methyl)phenyl)carbamate]
30 | – | – | 0.98 | 4.43 | – | O=C(Nc1ccc(CC2CCN(C(=O)C3CC(F)(F)C3)CC2)cc1)OCc1cnco1 [Compound 470, oxazol-5-ylmethyl (4-((1-(3,3-difluorocyclobutane-1-carbonyl)piperidin-4-yl)methyl)phenyl)carbamate]
